Assay: in vitro
Details: human, hela cells, % viability

SMILES	viability at 28.5 h, 10 µM
N#CC(NS(=O)(=O)c1ccc(OC(F)(F)F)cc1)c1ccccc1 (stereo not shown) [CBK043714]	97.6%
c1cncc(COc2nccnc2OC2CCN(Cc3cccnc3)CC2)c1 [CBK083158]	108%
NC(=O)C1CCN(S(=O)(=O)c2ccc([N+](=O)[O-])cc2)CC1 [CBK261455]	87%
O=C(NC(c1ccc(Cl)cc1)c1ccsc1)C1CCN(CCOc2ccccc2)CC1 (stereo not shown) [CBK147951]	101%
NC(=O)C1CCN(c2ccc(-c3noc([C@@H]4CCCN4Cc4cccnc4)n3)cn2)CC1 [CBK288882]	108%
Cc1cn([C@H]2C[C@@H](O)[C@@H](CO)O2)c(=O)n(CCC#N)c1=O [CBK201322]	98.4%
COc1ccc(CN(C)c2c(C)nc3c(OCC(=O)N4CCOCC4)cccn23)cc1 [CBK147469]	102%
CCc1nn(Cc2ccccn2)c(=O)c2cc3sccc3n12 [CBK284074]	46.8%
Clc1cccc(-c2nc(NCCCN3CCOCC3)c3ccccc3n2)c1 [CBK267309]	76%
CC(=O)c1ccc(NC(=O)N[C@H]2CCN3C(=O)[C@H]4CCCN4C(=O)[C@H]23)cc1 [CBK289228]	108%
Clc1ccc(OCCOc2nccnc2N2CCNCC2)cn1 [CBK014049G]	92.5%
COc1ccc(N2C(=O)CC(NCCNc3ccc([N+](=O)[O-])cn3)C2=O)cc1 (stereo not shown) [CBK263593]	85.3%
CC(=O)c1ccc(-c2ccc3ccc(N)nc3n2)cc1 [CBK061862]	84.4%
Cc1onc(-c2ccccc2)c1C(=O)N1CCC1 [CBK160450]	90.6%
Cc1cnc(NC(=O)C2CC(=O)N(Cc3cccs3)C2)s1 (stereo not shown) [CBK175531]	90.9%
CCc1cccc2c(CC(=O)NC3CCCOC3)c(C)[nH]c12 (stereo not shown) [CBK282584]	105%
O=c1[nH]c(=O)n(Cc2ccccc2)c2nc[nH]c12 [CBK291140]	108%
COc1ccc(N2C(=O)C(CC(=O)Nc3ccc(F)cc3)N(Cc3ccc4c(c3)OCO4)C2=O)cc1 (stereo not shown) [CBK266515]	97%
CCC1CCc2c(sc(NC(=O)c3cnccn3)c2C(N)=O)C1 (stereo not shown) [CBK262649]	105%
CN(C)c1nc(Oc2ccc(OCCOc3ccccc3)nn2)nc(N(C)C)n1 [CBK264976]	104%
CCc1nc2ccc(C(=O)NCCOc3ccc(OC)cc3)cn2c1N(C)CC [CBK145504]	91.9%
CCOc1ccc(C(=O)N2CC(C(N)=O)CCC2C)cn1 (stereo not shown) [CBK305770]	102%

SMILES	viability at 28.5 h, 10 µM
CN(C)C(=O)c1ccc(-c2ccc(OC3CCN(C(=O)CC(C)(C)c4ccccc4)CC3)nc2)cc1 [CBK155047]	101%
O=C(c1ccccn1)N1C[C@@H]2OCC(=O)N(Cc3ccccc3)[C@@H]2C1 [CBK289698]	84.3%
CCCCC(C(=O)O)N1C(=O)c2ccccc2C1=O (stereo not shown) [CBK287153]	101%
CCCc1cnc(N2CCN(S(=O)(=O)c3ccc(NC(C)=O)cc3Cl)CC2)nc1 [CBK086208]	117%
COc1cc(C)c(S(=O)(=O)n2c(C)nc3ccccc32)cc1C [CBK265464]	94%
CC(C)N(C)CC(=O)N(C)c1nc2c(s1)CC(c1ccccc1)CC2 (stereo not shown) [CBK305535]	93.7%
CN1CC[C@@]2(c3cc(F)cc(F)c3)CCC(=O)CC12 (stereo partly shown) [CBK002500]	110%
CCCCCCN1CCC2CN(CCCC(=O)c3ccc(F)cc3)CCN2C1=O (stereo not shown) [CBK024890C]	99%
CC(C)(C)c1ccc(Oc2ccc(NC(=O)CCCC(=O)O)cc2)cc1 [CBK264339]	103%
Cc1onc(-c2ccccc2)c1CNC(=O)/C=C/c1ccc2c(c1)OCO2 [CBK144085]	95%
CCC1CCCCN1Cc1nc2c(c(=O)n(C)c(=O)n2C)n1CCCO (stereo not shown) [CBK269365]	91.8%
COc1ccc(-c2nn(-c3ccccc3)cc2/C=C2\SC(N3CC(C)OC(C)C3)=NC2=O)cc1F (stereo not shown) [CBK265613]	100%
COC(=O)c1sccc1S(=O)(=O)n1ccc2ccc(Br)cc21 [CBK003528]	92.6%
Cc1ccc(C(=O)N2C3CCC2CC(O)(c2cccnc2F)C3)o1 (stereo not shown) [CBK284423]	104%
O=C(Oc1n[nH]c2ccccc12)c1ccc(Cl)cc1 [CBK009976]	100%
O=C1CCC(=O)N1CCOc1nccnc1N1CCN(CCc2c[nH]c3ccccc23)CC1 [CBK084304]	95.5%
Cc1cc(C(=O)N2CCC(n3c(=O)[nH]c4ccccc43)CC2)no1 [CBK149714]	103%
Cc1nc(CC(=O)NC(Cc2ccsc2)c2nccs2)cs1 (stereo not shown) [CBK282823]	87.5%
Nc1cccc(-c2cc(Nc3ccc(CCO)cc3)ncn2)c1 [CBK090766]	104%
O=C(CSc1nnc2sc3ccccc3n12)N1N=CCC1c1ccccc1 (stereo not shown) [CBK266527]	87.1%
COc1ccc(CNC(=O)CN2CCCC(Cn3cncn3)C2)cc1 (stereo not shown) [CBK305339]	88.9%
COC(=O)C1C=C(NS(=O)(=O)c2ccc(-c3ccnc(SC)n3)s2)C=CC1 (stereo not shown) [CBK160388]	104%

SMILES	viability at 28.5 h, 10 µM
Cc1cccn2c(=O)cc(CN3CCc4nn(C)c(=O)cc4C3)nc12 [CBK305514]	98.2%
Cc1ccc(-c2nc(C3CCCN(C(=O)NC4CCCCC4)C3)n3ccccc23)cc1 (stereo not shown) [CBK047241]	94.4%
Cc1cc(I)ccc1NCC(=O)NN [CBK261738]	91.1%
COc1ccc(/C=C/c2nc(C#N)c(NCc3cccnc3)o2)cc1OC [CBK269240]	91.3%
COc1ccc2ccccc2c1CN1CCN(Cc2ccccc2)CC1 [CBK261913]	98.5%
CCOC(=O)c1sc2nc(C(C)N(C)Cc3ccco3)[nH]c(=O)c2c1C (stereo not shown) [CBK306148]	106%
CC(C)c1ccc(/C=N/Nc2nc(-c3ccccc3)cs2)cc1 [CBK263091]	94.5%
O=C(CSc1nc2ccccc2c2nc3ccccc3n12)Nc1ccc(Cl)cc1F [CBK268098]	115%
Cc1cc(COc2ccnc(N3CCCN(CC4CC4)CC3)n2)no1 [CBK084073]	91.1%
O=C(CSc1nc2ccccc2[nH]1)n1c2c(c3ccccc31)CCCC2 [CBK263945]	92.8%
O=C1NC(CCSC2=NCN=N2)Oc2ccccc21 (stereo not shown) [CBK009148]	107%
O=C(O)c1cc(Cl)c(OCc2cc(-c3ccccc3)no2)c(Cl)c1 [CBK295297]	86.7%
O=C(CCCSc1nc2sc3c(c2c(=O)[nH]1)CCCC3)NCCO [CBK263336]	90.9%
Cc1cc(C(C)(C)C)cc(S(=O)(=O)Nc2ccc(O)c(C(=O)O)c2)c1C [CBK266196]	101%
C=C(C)Cn1c(SCC(C)C)nnc1-c1ccc(F)cc1 [CBK200085]	99.9%
c1ccc(-c2nn3c(CN4CCOCC4)nnc3c3ccccc23)cc1 [CBK269779]	89%
O=C1CCC(C(=O)N2CCN(S(=O)(=O)c3ccccc3Cl)CC2)N1 (stereo not shown) [CBK304561]	77.6%
Cc1nc2c(c(=O)[nH]1)CCN(Cc1cc(C)n(C3CC3)c1C)C2 [CBK282338]	89.2%
O=C(CO)N1CC2(CCN(CCCn3c(=O)[nH]c4ccccc43)CC2)c2ccccc21 [CBK131506]	91.9%
Cc1noc2nc(C3CCN(C(=O)C(C)C)CC3)cc(C(F)F)c12 [CBK285305]	79.9%
CN1CCN(CCC(=O)N/N=C/c2ccc(O)cc2O)CC1 [CBK262849]	94.2%
COc1ccccc1NC(=S)NCCc1ccccn1 [CBK265358]	91.2%

SMILES	viability at 28.5 h, 10 µM
OCCN(Cc1cccnc1)Cc1cccn1-c1cccc(F)c1 [CBK283018]	81.5%
CN1[C@@H](CCC(=O)Nc2ccccc2)CNC(=O)[C@@H]2[C@H]1CCN2C1CCOCC1 [CBK289029]	108%
CCN1C(=O)COC[C@@H]1[C@H](O)c1ccc(NC(=O)c2ccco2)cc1 [CBK289695]	85.3%
O=C(O)C1CCCCC1C(=O)NCCCN1CCCC1=O (stereo not shown) [CBK286914]	83.1%
COc1ccc(NC(=O)c2sc(Cl)nc2C)cc1 [CBK057902]	97.1%
CCn1c(COc2ccc(Cl)c3cccnc23)nnc1SC [CBK266611]	85.9%
O=C(NCCN1CCc2ccccc2C1)C1CCCCC1 [CBK305049]	115%
CCC(C)(C)c1ccc(S(=O)(=O)N2CCN(CCCOC3CCCCO3)CC2)cc1 (stereo not shown) [CBK063135]	96.9%
CS(=O)(=O)N1CCCC(C(=O)Nc2cccc3cccnc23)C1 (stereo not shown) [CBK299783]	90.8%
O=c1[nH]c(/C=C/c2cc(Br)ccc2OCc2cccc3ccccc23)c([N+](=O)[O-])c(=O)[nH]1 [CBK268052]	86.3%
Cc1ccccc1C(NC(=O)C1CCN(C(=O)N(C)c2ccccc2)CC1)c1ccccn1 (stereo not shown) [CBK059721]	88.7%
O=C(Nc1ccc(I)cc1C(=O)NCCN1CCOCC1)c1ccc(Cl)cc1Cl [CBK266157]	100%
COC(=O)c1ccc(NC(=O)CC2Sc3ccc(C(F)(F)F)cc3NC2=O)cc1 (stereo not shown) [CBK264645]	110%
Cc1ccc(F)c(OC2(C(=O)O)CCN(Cc3cccc(C)n3)CC2)c1 [CBK306541]	98.8%
COc1cc(Nc2cc(-c3ccccc3N(C)C)ncn2)cc(OC)c1OC [CBK090702]	64.2%
Cc1oc(-c2ccccc2)cc1C(=O)NCc1ccc(OC2CCNCC2)cc1 [CBK038915T]	108%
CC(Oc1ccc(Cl)cc1Cl)C(=O)Nc1ccc(N2CCN(C)CC2)c(Cl)c1 (stereo not shown) [CBK268563]	85%
N#Cc1ccc(Sc2cccc(F)c2)c(F)c1 [CBK002909]	115%
COc1cnc(-c2ccsc2)c(NC(=O)c2cc(C)oc2C)n1 [CBK145294]	93.2%
CCOC(=O)c1csc(C2CCCN2C(=O)CCc2ccccc2O)n1 (stereo not shown) [CBK305448]	109%
COC(=O)COc1nccnc1-c1ccc(C)c(C)c1 [CBK106871]	83.3%
CN1c2ccccc2C(c2ccccc2)=NS1(=O)=O [CBK022873]	92.1%

From paper PMC12040169 (PLOS Biology, 2025)
